Measured values: US9993001B2, “Herbicidal composition” (ISHIHARA SANGYO KAISHA, LTD., priority 2014, dated 2018)

Experiments:
Type in all cases: in vivo
[1] = system: common chickweed (Stellaria media L.); assay: Test Example 25: pot, soil treatment, metobromuron + trifluralin; conditions: 445 g/ha, soil treatment, pot, 21st day after treatment, read-out: Growth inhibition rate of common chickweed (%) Measured value
[2] = system: Oriental lady's thumb (Persicaria longiseta); assay: Test Example 7: common bean field, soil treatment, metobromuron + trifluralin; conditions: 1335 g/ha, soil treatment, common bean field, 49th day after treatment, read-out: Growth inhibition rate of Oriental lady's thumb (%) Measured value
Text: (§1) When the herbicidal activity in a case where two active ingredients are combined, is larger than the simple sum of the respective herbicidal activities of the two active ingredients (the expected activity), it is called a synergistic effect. The activity expected by the combination of two active ingredients can be calculated as follows (Colby S. R., “Weed”, vol. 15, p. 20-22, 1967). E=α+β−(α×β[…]) where α: growth inhibition rate when treated with x (g/ha) of herbicide X, • β: growth inhibition rate when treated with y (g/ha) of herbicide Y, • E: growth inhibition rate expected when treated with x (g/ha) of herbicide X and y (g/ha) of herbicide Y.
(§2) On the 19th day after treatment, the state of growth of barnyardgrass was visually observed and evaluated in accordance with the following standards. The growth inhibition rate (%) [measured value] and the growth inhibition rate (%) [calculated value] calculated by the Colby's method, are shown in Table 2.
(§3) Growth inhibition rate (%)=inhibition rate) (%) of 0 (equivalent to the non-treated area) to 100 (complete kill) […]
On the 49th day after treatment, the state of growth of Oriental lady's thumb (Persicaria longiseta) which occurred naturally, was visually observed and evaluated in the same manner as in Test Example 1.

[3] = system: common lambsquarters (Chenopodium album L.); assay: Test Example 24: pot, soil treatment, metobromuron + trifluralin; conditions: soil treatment, pot, 21st day after treatment, read-out: Growth inhibition rate of common lambsquarters (%) Measured value
Text: as §1, §2
(§4) Growth inhibition rate (%)=inhibition rate) (%) of 0 (equivalent to the non-treated area) to 100 (complete kill)
(§5) Soil was put into a 1/300,000 ha pot, and seeds of common lambsquarters (Chenopodium album L.) were sown. On the day after seeding, predetermined amounts of SC containing metobromuron as active ingredient (same as in Test Example 1) and EC containing trifluralin as active ingredient (same as in Test Example 4) were diluted with water corresponding to 1,000 L per hectare and applied for soil treatment.
On the 21st day after treatment, the state of growth of common lambsquarters was visually observed and evaluated in the same manner as in Test Example 1.

[4] = system: barnyardgrass (Echinochloa crus-qalli L.); assay: Test Example 4: soybean field, soil treatment, metobromuron + trifluralin; conditions: 890 g/ha, soil treatment, soybean field, 50th day after treatment, read-out: Growth inhibition rate of barnyardgrass (%) Measured value
Text: as §1, §2, §3
On the 50th day after treatment, the state of growth of barnyardgrass (Echinochloa crus-qalli L.) which occurred naturally, was visually observed and evaluated in the same manner as in Test Example 1.

[5] = system: barnyardgrass (Echinochloa crus-galli L.); assay: Test Example 32: pot, soil treatment, metobromuron + chlorpropham; conditions: soil treatment, pot, 26th day after treatment, read-out: Growth inhibition rate of barnyardgrass (%) Measured value
Text: as §1, §2, §4
as §5, with “barnyardgrass (Echinochloa crus-galli” for “common lambsquarters (Chenopodium album”, “chlorpropham” for “trifluralin”, “1)” for “4)”
(§6) On the 26th day after treatment, the state of growth of barnyardgrass was visually observed and evaluated in the same manner as in Test Example 1.

[6] = system: barnyardgrass (Echinochloa crus-galli L.); assay: Test Example 15: pot, soil treatment, metobromuron + chlorpropham; conditions: 750 g/ha, soil treatment, pot, 21st day after treatment, read-out: Growth inhibition rate of barnyardgrass (%) Measured value
Text: as §1, §2, §4
(§7) Soil was put into a 1/300,000 ha pot, and seeds of barnyardgrass (Echinochloa crus-galli L.) were sown. […]
(§8) On the 21st day after treatment, the state of growth of barnyardgrass was visually observed and evaluated in the same manner as in Test Example 1.

[7] = system: giant foxtail (Setaria faberi Herrm.); assay: Test Example 16: pot, soil treatment, metobromuron + chlorpropham; conditions: soil treatment, pot, 21st day after treatment, read-out: Growth inhibition rate of giant foxtail (%) Measured value
Text: as §1, §2, §4
as §5, with “barnyardgrass (Echinochloa crus-galli” for “common lambsquarters (Chenopodium album”, “chlorpropham” for “trifluralin”, “1)” for “4)”
as §8
The test was carried out in the same manner as in Test Example 15 except that barnyardgrass (Echinochloa crus-galli L.) was changed to giant foxtail (Setaria faberi Herrm.), to obtain the results as shown in Table 17.

[8] = system: black nightshade (Solanum nigrum L.); assay: Test Example 17: pot, soil treatment, metobromuron + chlorpropham; conditions: soil treatment, pot, 21st day after treatment, read-out: Growth inhibition rate of black nightshade (%) Measured value
Text: as §1, §2, §4
as §5, with “barnyardgrass (Echinochloa crus-galli” for “common lambsquarters (Chenopodium album”, “chlorpropham” for “trifluralin”, “1)” for “4)”
as §8
The test was carried out in the same manner as in Test Example 15 except that barnyardgrass (Echinochloa crus-galli L.) was changed to black nightshade (Solanum nigrum L.), to obtain the results as shown in Table 18.

[9] = system: common lambsquarters (Chenopodium album L.); assay: Test Example 20: pot, soil treatment, metobromuron + chlorpropham; conditions: soil treatment, pot, 26th day after treatment, read-out: Growth inhibition rate of common lambsquarters (%) Measured value
Text: as §1, §2, §4
as §5, with “barnyardgrass (Echinochloa crus-galli” for “common lambsquarters (Chenopodium album”, “chlorpropham” for “trifluralin”, “1)” for “4)”
as §6
The test was carried out in the same manner as in Test Example 18 except that barnyardgrass (Echinochloa crus-galli L.) was changed to common lambsquarters (Chenopodium album L.), to obtain the results as shown in Table 21.

[10] = system: annual bluegrass (Poa annua L.); assay: Test Example 19: pot, soil treatment, metobromuron + chlorpropham; conditions: 250 g/ha, soil treatment, pot, 26th day after treatment, read-out: Growth inhibition rate of annual bluegrass (%) Measured value
[11] = system: barnyardgrass (Echinochloa crus-qalli L.); assay: Test Example 1: soybean field, soil treatment, metobromuron + chlorpropham; conditions: 916 g/ha, soil treatment, soybean field, 19th day after treatment, read-out: Growth inhibition rate of barnyardgrass (%) Measured value
Text: When the herbicidal activity in a case where two active ingredients are combined, is larger than the simple sum of the respective herbicidal activities of the two active ingredients (the expected activity), it is called a synergistic effect. The activity expected by the combination of two active ingredients can be calculated as follows (Colby S. R., “Weed”, vol. 15, p. 20-22, 1967). E=α+β−(α×β[…]) where α: growth inhibition rate when treated with x (g/ha) of herbicide X, • β: growth inhibition rate when treated with y (g/ha) of herbicide Y, • E: growth inhibition rate expected when treated with x (g/ha) of herbicide X and y (g/ha) of herbicide Y. […]
as §2, with “2. […]” for “2.”

[12] = system: barnyardgrass (Echinochloa crus-galli L.); assay: Test Example 18: pot, soil treatment, metobromuron + chlorpropham; conditions: 500 g/ha, soil treatment, pot, 26th day after treatment, read-out: Growth inhibition rate of barnyardgrass (%) Measured value
Text: as §1, §2, §4, §7, §6

[13] = system: barnyardgrass (Echinochloa crus-qalli L.); assay: Test Example 5: adzuki bean field, soil treatment, metobromuron + fluazifop-P-butyl; conditions: 700 g/ha; soil treatment, adzuki bean field; 39th day after treatment
Text: as §1, §2, §3
On the 39th day after treatment, the state of growth of barnyardgrass (Echinochloa crus-qalli L.) which occurred naturally, was visually observed and evaluated in the same manner as in Test Example 1.

[14] = system: black nightshade (Solanum nigrum L.); assay: Test Example 23: pot, soil treatment, metobromuron + fluazifop-P-butyl; conditions: 131.25 g/ha; soil treatment, pot; 20th day after treatment
Text: as §1, §2, §4
Soil was put into a 1/300,000 ha pot, and seeds of black nightshade (Solanum nigrum L.) were sown. […]
On the 20th day after treatment, the state of growth of black nightshade was visually observed and evaluated in the same manner as in Test Example 1.

Compound `CCCN(CCC)c1c([N+](=O)[O-])cc(C(F)(F)F)cc1[N+](=O)[O-]` [Trifluralin, α,α,α-trifluoro-2,6-dinitro-N,N-dipropyl-p-toluidine] has an inhibition at 445 g/ha [1] of 35%, an inhibition at 1335 g/ha [2] of 40% and an inhibition at 296.7 g/ha ([3]; 296.7 g/ha) of 20%. It also gave an inhibition at 445 g/ha ([3]; 445 g/ha) of 15%, an inhibition at 667.5 g/ha ([3]; 667.5 g/ha) of 48% and an inhibition at 890 g/ha [4] of 20%.

`CC(C)OC(=O)Nc1cccc(Cl)c1` [Chlorpropham, isopropyl 3-chlorocarbanilate] was tested, and the inhibition at 125 g/ha ([5]; 125 g/ha) was 10%, the inhibition at 250 g/ha ([5]; 250 g/ha) was 0% and the inhibition at 500 g/ha ([5]; 500 g/ha) was 70%. The inhibition at 750 g/ha [6] was 0%, the inhibition at 750 g/ha ([7]; 750 g/ha) was 0% and the inhibition at 1000 g/ha ([7]; 1000 g/ha) was 0%. It also gave an inhibition at 750 g/ha ([8]; 750 g/ha) of 0%, an inhibition at 1000 g/ha ([8]; 1000 g/ha) of 0% and an inhibition at 125 g/ha ([9]; 125 g/ha) of 20%. It also gave an inhibition at 250 g/ha ([9]; 250 g/ha) of 30%, an inhibition at 1000 g/ha ([9]; 1000 g/ha) of 50% and an inhibition at 250 g/ha [10] of 10%. The inhibition at 916 g/ha [11] was 8% and the inhibition at 500 g/ha [12] was 70%.

`CCCCOC(=O)[C@@H](C)Oc1ccc(Oc2ccc(C(F)(F)F)cn2)cc1` [Fluazifop-P-butyl, butyl (R)-2-[4-[5-(trifluoromethyl)-2-pyridyloxy]phenoxy] propionate] was tested, and the “Growth inhibition rate of barnyardgrass (%) Measured value” [13] was 55% and the “Growth inhibition rate of black nightshade (%) Measured value” [14] was 25%.
